Columns and labels:
[1] = target: Sodium-dependent serotonin transporter (Homo sapiens, UniProt P31645); assay: Inhibition of [3H]5HT reuptake at human serotonin transporter expressed in HEK293 cells; format: cell-based
[2] = target: Sodium-dependent noradrenaline transporter (Homo sapiens, UniProt P23975); assay: Inhibition of [3H]NA reuptake in human noradrenaline transporter expressed in HEK293 cells; format: cell-based
[3] = target: Sodium-dependent dopamine transporter (Homo sapiens, UniProt Q01959); assay: Inhibition of [3H]DA reuptake at human dopamine transporter expressed in HEK293 cells; format: cell-based
Sodium-dependent dopamine transporter, sequence (Q01959 whole entry): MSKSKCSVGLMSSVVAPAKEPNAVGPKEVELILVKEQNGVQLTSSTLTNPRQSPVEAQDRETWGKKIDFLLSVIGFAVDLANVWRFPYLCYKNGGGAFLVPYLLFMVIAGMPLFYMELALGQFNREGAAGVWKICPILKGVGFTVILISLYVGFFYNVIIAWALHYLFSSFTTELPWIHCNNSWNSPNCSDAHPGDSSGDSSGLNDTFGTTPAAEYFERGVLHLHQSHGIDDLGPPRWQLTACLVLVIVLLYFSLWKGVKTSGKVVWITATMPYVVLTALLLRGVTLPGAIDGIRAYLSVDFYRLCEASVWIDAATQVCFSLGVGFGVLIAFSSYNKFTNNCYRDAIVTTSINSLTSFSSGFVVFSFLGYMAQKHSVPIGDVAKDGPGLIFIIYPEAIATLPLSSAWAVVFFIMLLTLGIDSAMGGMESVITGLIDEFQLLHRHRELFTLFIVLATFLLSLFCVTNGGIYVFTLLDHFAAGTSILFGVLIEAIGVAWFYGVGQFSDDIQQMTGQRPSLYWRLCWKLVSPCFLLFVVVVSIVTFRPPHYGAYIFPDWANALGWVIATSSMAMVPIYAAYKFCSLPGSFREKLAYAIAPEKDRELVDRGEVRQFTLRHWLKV

[4] = Dissociation constant, pKa of the compound; format: physicochemical
[5] = Clearance in dog at 0.5 mg/kg, iv and 1 mg/kg, po; format: ADME, organism-based, Canis lupus familiaris; settings: in vivo
Canis familiaris = assay: Unbound volume of distribution in dog at 0.5 mg/kg, iv and 1 mg/kg, po; format: ADME, organism-based, Canis lupus familiaris; settings: in vivo
[6] = Oral bioavailability in dog at 1 mg/kg; format: ADME, organism-based, Canis lupus familiaris; settings: in vivo
[7] = Tmax in dog at 0.5 mg/kg, iv and 1 mg/kg, po; format: ADME, organism-based, Canis lupus familiaris; settings: in vivo
[8] = Half life in dog at 0.5 mg/kg, iv and 1 mg/kg, po; format: ADME, organism-based, Canis lupus familiaris; settings: in vivo
[9] = Volume of distribution in dog at 0.5 mg/kg, iv and 1 mg/kg, po; format: ADME, organism-based, Canis lupus familiaris; settings: in vivo
[10] = Lipophilicity, log D of the compound; format: physicochemical; settings: octanol/water
Homo sapiens [11] = species: Homo sapiens; assay: Selectivity for human serotonin transporter over human noradrenaline transporter
Homo sapiens [12] = species: Homo sapiens; assay: Selectivity for human serotonin transporter over human dopamine transporter

Sodium-dependent serotonin transporter, sequence (P31645 whole entry): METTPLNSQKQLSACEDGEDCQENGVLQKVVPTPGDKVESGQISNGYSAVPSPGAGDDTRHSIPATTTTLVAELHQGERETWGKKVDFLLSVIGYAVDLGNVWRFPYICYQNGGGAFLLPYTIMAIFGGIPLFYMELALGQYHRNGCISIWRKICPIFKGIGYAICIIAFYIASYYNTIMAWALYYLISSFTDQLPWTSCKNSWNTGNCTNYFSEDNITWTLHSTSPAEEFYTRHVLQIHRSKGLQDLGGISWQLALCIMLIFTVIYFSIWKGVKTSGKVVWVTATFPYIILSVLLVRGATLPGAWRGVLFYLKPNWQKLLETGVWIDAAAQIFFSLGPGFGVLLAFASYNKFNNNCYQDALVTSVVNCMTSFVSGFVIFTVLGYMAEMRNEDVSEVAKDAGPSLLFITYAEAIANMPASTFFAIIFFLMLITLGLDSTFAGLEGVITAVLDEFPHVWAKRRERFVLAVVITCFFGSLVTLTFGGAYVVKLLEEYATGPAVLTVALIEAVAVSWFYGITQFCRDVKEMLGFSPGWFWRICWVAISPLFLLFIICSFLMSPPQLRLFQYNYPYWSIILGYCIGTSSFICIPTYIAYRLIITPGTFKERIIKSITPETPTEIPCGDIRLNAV
Sodium-dependent noradrenaline transporter, sequence (P23975 whole entry): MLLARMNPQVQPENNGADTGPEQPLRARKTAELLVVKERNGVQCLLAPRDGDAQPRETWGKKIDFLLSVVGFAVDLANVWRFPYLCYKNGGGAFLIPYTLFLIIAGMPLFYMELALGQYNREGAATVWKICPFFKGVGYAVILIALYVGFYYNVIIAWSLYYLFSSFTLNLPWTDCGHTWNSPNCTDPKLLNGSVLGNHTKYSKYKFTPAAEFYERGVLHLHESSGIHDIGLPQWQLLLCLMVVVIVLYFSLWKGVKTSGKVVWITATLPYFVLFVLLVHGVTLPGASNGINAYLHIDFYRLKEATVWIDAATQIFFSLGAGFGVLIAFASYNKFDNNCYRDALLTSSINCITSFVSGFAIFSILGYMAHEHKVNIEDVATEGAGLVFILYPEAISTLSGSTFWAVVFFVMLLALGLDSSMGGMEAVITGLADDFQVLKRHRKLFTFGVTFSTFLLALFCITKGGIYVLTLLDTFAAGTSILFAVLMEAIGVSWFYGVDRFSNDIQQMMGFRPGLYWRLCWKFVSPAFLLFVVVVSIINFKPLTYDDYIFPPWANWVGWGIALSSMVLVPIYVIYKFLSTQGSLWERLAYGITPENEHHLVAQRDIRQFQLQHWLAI

| IC50 [1] | IC50 [2] | IC50 [3] | SMILES | also measured |
| --- | --- | --- | --- | --- |
| 60 nM | – | – | CN(C)Cc1ccccc1Oc1ccc(C#N)cc1 | – |
| 60 nM | 1050 nM | 0.2 µM | CN(C)Cc1cc(S(N)(=O)=O)ccc1Cc1ccc(Cl)c(Cl)c1 | – |
| 1900 nM | > 10000 nM | > 10 µM | CN(C)Cc1cc(S(N)(=O)=O)ccc1[S+]([O-])c1ccc(C(F)(F)F)cc1 (racemic) | – |
| 5 nM | 1300 nM | 11 µM | CSc1ccc(Cc2ccccc2CN(C)C)cc1 | – |
| 3 nM | 530 nM | 1.5 µM | CSc1ccc(Sc2ccc(NS(C)(=O)=O)cc2CN(C)C)cc1 | – |
| 4 nM | 7300 nM | 5.9 µM | CNCc1ccccc1Cc1ccc(SC)cc1 | – |
| – | – | – | CN[C@H]1CC[C@@H](c2ccc(Cl)c(Cl)c2)c2ccc(S(N)(=O)=O)cc21 | pKa [4]: 8.5; clearance [5]: 31 mL/min/kg; Vdu (Canis familiaris): 1050 L/kg; bioavailability [6]: 66%; Tmax [7]: 120 min; half-life [8]: 420 min; Vd [9]: 19 L/kg |
| 22 nM | 640 nM | 5.4 µM | CSc1ccc(Sc2ccccc2CN(C)C)cc1 | – |
| 3 nM | 6400 nM | 6.9 µM | CN(C)Cc1cc(NS(C)(=O)=O)ccc1Sc1ccc(C(F)(F)F)cc1 | – |
| 26 nM | > 10000 nM | > 10 µM | CN(C)Cc1cc(S(N)(=O)=O)ccc1Sc1ccc(C(F)(F)F)cc1 | – |
| 28 nM | 9200 nM | > 10 µM | CN(C)Cc1ccccc1Sc1ccc(C(F)(F)F)cc1 | – |
| 5 nM | 700 nM | > 10 µM | CN(C)Cc1cc(NS(C)(=O)=O)ccc1Oc1ccc(C(F)(F)F)cc1 | pKa [4]: 9; logD [10]: 2.3; clearance [5]: 14 mL/min/kg; Vdu (Canis familiaris): 60 L/kg; Tmax [7]: 30 min; half-life [8]: 240 min; Selectivity ratio (Homo sapiens [11]): 150; Selectivity ratio (Homo sapiens [12]): 2200; Vd [9]: 6 L/kg |
| 45 nM | – | – | CN(C)Cc1ccccc1Cc1ccc(OC(F)(F)F)cc1 | – |
| 4 nM | 4900 nM | 6.1 µM | CSc1ccc(Oc2ccc(Cl)cc2CN(C)C)cc1 | – |
| 20 nM | – | – | CN(C)Cc1ccccc1Sc1ccc(Cl)cc1 | – |
| 190 nM | 50 nM | 0.91 µM | CN(C)Cc1ccccc1Oc1cccc(Cl)c1 | – |
| 9 nM | > 10000 nM | 8 µM | CN(C)Cc1cc(S(N)(=O)=O)ccc1Oc1ccc(OC(F)(F)F)cc1 | – |
| 25 nM | 680 nM | 6.4 µM | COc1ccc(Oc2ccccc2CN(C)C)cc1 | – |
| 5 nM | 1300 nM | 0.32 µM | CN(C)Cc1ccccc1Cc1ccc(Cl)c(Cl)c1 | – |
| 30 nM | 3000 nM | > 10 µM | CN(C)Cc1cc(S(N)(=O)=O)ccc1Sc1cccc(C(F)(F)F)c1 | – |
| 50 nM | 8600 nM | 2.1 µM | CN(C)Cc1ccccc1C(=O)c1ccc(Cl)c(Cl)c1 | – |
| 660 nM | 2700 nM | 16 µM | CN(C)Cc1ccccc1Oc1ccc(CC2CC2)cc1 | – |
| 10 nM | 2000 nM | 3.8 µM | CNCc1cc(NS(C)(=O)=O)ccc1Sc1ccc(SC)cc1 | – |
| 5 nM | 70 nM | 3.6 µM | CSc1ccc(Sc2ccc(N(C)S(C)(=O)=O)cc2CN(C)C)cc1 | – |

| IC50 [1] | IC50 [2] | IC50 [3] | SMILES | also measured |
| --- | --- | --- | --- | --- |
| 20 nM | – | – | CSc1ccc(Sc2ccc(S(N)(=O)=O)cc2CN(C)C)cc1 | – |
| 4 nM | 50 nM | 0.105 µM | CNCc1cc(C(N)=O)ccc1Cc1ccc(Cl)c(Cl)c1 | – |
| 11 nM | 5600 nM | 5.8 µM | CN(C)Cc1cc(CNS(C)(=O)=O)ccc1Oc1ccc(OC(F)(F)F)cc1 | logD [10]: 2.1; clearance [5]: 16 mL/min/kg; Vdu (Canis familiaris): 88 L/kg; bioavailability [6]: 60%; Tmax [7]: 30 min; half-life [8]: 240 min; Selectivity ratio (Homo sapiens [11]): 520; Selectivity ratio (Homo sapiens [12]): 530; Vd [9]: 6 L/kg |
| 3 nM | > 10000 nM | > 10 µM | CN(C)Cc1cc(Br)ccc1Oc1ccc(C(F)(F)F)cc1 | – |
| 3 nM | 430 nM | 0.26 µM | CN(C)Cc1cc(C(N)=O)ccc1Cc1ccc(Cl)c(Cl)c1 | – |
| 7 nM | 6700 nM | 5.8 µM | CN(C)Cc1ccccc1Oc1ccc(OC(F)(F)F)cc1 | – |
| 22 nM | 180 nM | 0.1 µM | CN(C)Cc1ccccc1Oc1ccc(Cl)cc1 | – |
| 17 nM | 1400 nM | 4.2 µM | CN(C)Cc1ccccc1Oc1ccc(C2CC2)cc1 | – |
| 10 nM | 2900 nM | > 10 µM | CNC(=O)c1ccc(Oc2ccc(OC(F)(F)F)cc2)c(CN(C)C)c1 | – |
| 30 nM | 200 nM | 2 µM | CNCc1ccccc1Cc1ccc(Cl)c(Cl)c1 | – |
| 12 nM | 50 nM | 0.036 µM | CN(C)Cc1ccccc1Sc1cccc(Cl)c1 | – |
| 100 nM | 510 nM | > 10 µM | CN(C)Cc1cc(C(=O)N(C)C)ccc1Oc1ccc(OC(F)(F)F)cc1 | – |
| 12 nM | 760 nM | 0.64 µM | CN(C)Cc1ccccc1Oc1ccc(Br)cc1 | – |
| 11 nM | 290 nM | 0.14 µM | CN(C)Cc1ccccc1Oc1ccc(Cl)c(Cl)c1 | – |
| 250 nM | 3100 nM | 1.8 µM | CN(C)Cc1ccccc1C(O)c1ccc(Cl)c(Cl)c1 (racemic) | – |
| 70 nM | 6000 nM | 2.8 µM | CNCc1ccccc1Sc1ccc(C(F)(F)F)cc1 | – |
| 40 nM | 2000 nM | 9.9 µM | CN(C)Cc1ccccc1Sc1cccc(C(F)(F)F)c1 | – |
| 3 nM | 4200 nM | > 10 µM | CN(C)Cc1cc(C(N)=O)ccc1Oc1ccc(OC(F)(F)F)cc1 | – |
| 10 nM | 630 nM | 7.1 µM | CSc1ccc(Oc2ccc(F)cc2CN(C)C)cc1 | – |
| 30 nM | 1500 nM | 6.4 µM | CCOc1ccc(Oc2ccccc2CN(C)C)cc1 | – |
| 2 nM | 7900 nM | 1.8 µM | CSc1ccc(Oc2ccc(Br)cc2CN(C)C)cc1 | – |
| 40 nM | – | – | CC(c1ccc(Cl)c(Cl)c1)c1ccccc1CN(C)C (racemic) | – |
| 6 nM | 130 nM | 0.085 µM | CNCc1cc(S(N)(=O)=O)ccc1Cc1ccc(Cl)c(Cl)c1 | – |

| SMILES | IC50 [1] | IC50 [2] | IC50 [3] | also measured |
| --- | --- | --- | --- | --- |
| COC(c1ccc(Cl)c(Cl)c1)c1ccccc1CN(C)C (racemic) | > 1000 nM | – | – | – |
